Measurements reported in PubChem BioAssay AID330 (DTP/NCI, 2004).
Several values for one entry are separate records, joined by “and”; a condition that tells them apart may be missing. Equal values may be shown once. Toxic doses and inconclusive results are not listed.

System: P388 leukemia ip, CD2F1 mice, survival T/C
Assay: NCI In Vivo Anticancer Drug Screen. Data for tumor model P388 Leukemia (intraperitoneal) in CD2F1 (CDF1) mice
Settings: endpoint: median survival time, higher = longer survival
Procedure, shortened: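 Mice carrying the transplanted tumor received test compound or vehicle. Survival was recorded in each group, and the value is the treated-group measurement divided by that of the vehicle-treated control group.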

[1] = dose: 12.5 mg/kg/injection, schedule: Q01DX009 (ip), vehicle: saline with Tween-80
[2] = dose: 25.0 mg/kg/injection, schedule: Q01DX009 (ip), vehicle: saline with Tween-80
[3] = dose: 50.0 mg/kg/injection, schedule: Q01DX009 (ip), vehicle: saline with Tween-80
[4] = dose: 100.0 mg/kg/injection, schedule: Q04DX003 (ip), vehicle: saline with Tween-80
[5] = dose: 400.0 mg/kg/injection, schedule: Q04DX003 (ip), vehicle: saline with Tween-80
[6] = dose: 50.0 mg/kg/injection, schedule: Q01DX005 (ip), vehicle: saline with Tween-80
[7] = dose: 100.0 mg/kg/injection, schedule: Q01DX005 (ip), vehicle: saline with Tween-80
[8] = dose: 200.0 mg/kg/injection, schedule: Q01DX005 (ip), vehicle: saline with Tween-80
[9] = dose: 60.0 mg/kg/injection, schedule: Q01DX005 (ip), vehicle: Klucel (hydroxypropylcellulose) (HPC)
[10] = dose: 120.0 mg/kg/injection, schedule: Q01DX005 (ip), vehicle: Klucel (hydroxypropylcellulose) (HPC)
[11] = dose: 240.0 mg/kg/injection, schedule: Q01DX005 (ip), vehicle: Klucel (hydroxypropylcellulose) (HPC)
[12] = dose: 60.0 mg/kg/injection, schedule: Q01DX005 (ip), vehicle: saline with Tween-80
[13] = dose: 120.0 mg/kg/injection, schedule: Q01DX005 (ip), vehicle: saline with Tween-80
[14] = dose: 50.0 mg/kg/injection, schedule: Q01DX009 (ip), vehicle: suspension in saline
[15] = dose: 200.0 mg/kg/injection, schedule: Q01DX009 (ip), vehicle: suspension in saline

With `CCC(C)c1cnc(CC(C)C)c(=O)n1O` (stereo unspecified) the T/C (dose: 6.25 mg/kg/injection, schedule: Q01DX009 (ip), vehicle: saline with Tween-80) was 90 % of control, the T/C [1] was 91 % of control and the T/C [2] was 94 % of control. The T/C [3] was 100 % of control.
With `O=C(O)C(O)(c1ccccc1Cl)c1ccccc1Cl` the T/C [4] was 105 % of control, the T/C (dose: 200.0 mg/kg/injection, schedule: Q04DX003 (ip), vehicle: saline with Tween-80) was 110 % of control and the T/C [5] was 109 % of control.
For `c1ccc2c(-c3nc4ccccc4c4ccccc34)cccc2c1`, the T/C [6] was 108 % of control, the T/C [7] was 108 % of control and the T/C [8] was 95 % of control.
In the case of `CCC1C(=O)OCc2c1cc1n(c2=O)Cc2ccccc2-1` (stereo unspecified), the T/C (dose: 100.0 mg/kg/injection, schedule: Q01DX001 (ip), vehicle: saline with Tween-80) is reported as 97 % of control, the T/C (dose: 200.0 mg/kg/injection, schedule: Q01DX001 (ip), vehicle: saline with Tween-80) is reported as 92 % of control and the T/C (dose: 400.0 mg/kg/injection, schedule: Q01DX001 (ip), vehicle: saline with Tween-80) is reported as 90 % of control.
`CCc1nc2ccccc2c(=O)n1C` was tested, and the T/C [1] was 100 % of control, the T/C [2] was 100 % of control and the T/C [3] was 95 % of control.
`CN(C)c1ccc(C=C2C(=O)N(c3ccccc3)C(=S)N(c3ccccc3)C2=O)cc1` was tested, and the T/C [9] was 90 % of control, the T/C [10] was 92 % of control and the T/C [11] was 92 % of control.
`CC1C(c2ccccc2)NC(c2ccccc2)C(C)C1(O)c1ccccc1` (stereo unspecified) was tested, and the T/C [6] was 107 % of control and the T/C [7] was 107 % of control.
`O=C1OC(c2c[nH]c3ccccc3c2=O)c2ccccc21` (stereo unspecified) was tested, and the T/C [12] was 103 % of control, the T/C [13] was 95 % of control and the T/C (dose: 240.0 mg/kg/injection, schedule: Q01DX005 (ip), vehicle: saline with Tween-80) was 88 % of control.
In the case of `N#CC1(C#N)C2C=CC(C3CCC=C32)C1(C#N)C#N` (stereo unspecified), the T/C (dose: 6.25 mg/kg/injection, schedule: Q01DX009 (ip), vehicle: Klucel (hydroxypropylcellulose) (HPC)) is reported as 100 % of control, the T/C (dose: 12.5 mg/kg/injection, schedule: Q01DX009 (ip), vehicle: Klucel (hydroxypropylcellulose) (HPC)) is reported as 110 % of control and the T/C (dose: 25.0 mg/kg/injection, schedule: Q01DX009 (ip), vehicle: Klucel (hydroxypropylcellulose) (HPC)) is reported as 106 % of control.
With `O=c1[nH]c2ccccc2c(N=Cc2ccccc2)c1-c1ccccc1` the T/C [9] was 96 % of control, the T/C [10] was 93 % of control and the T/C [11] was 98 % of control.
In the case of `ClC1=CC(=N/Br)/C=CC/1=N/Br`, the T/C [6] is reported as 99 % of control and 101 % of control and 107 % of control, the T/C [7] is reported as 100 % of control and 103 % of control and 97 % of control and the T/C [8] is reported as 106 % of control and 108 % of control and 120 % of control.
With `COc1ccc(CSC(=S)Nc2ccc(SC)c(Cl)c2)cc1` the T/C [14] was 100 % of control, the T/C (dose: 100.0 mg/kg/injection, schedule: Q01DX009 (ip), vehicle: suspension in saline) was 108 % of control and the T/C [15] was 98 % of control.
`CCOP(=S)(N1CC1(C)C)N1CC1(C)C` (stereo unspecified) was tested, and the T/C (dose: 25.0 mg/kg/injection, schedule: Q01DX009 (ip), vehicle: saline) was 109 % of control, the T/C (dose: 50.0 mg/kg/injection, schedule: Q01DX009 (ip), vehicle: saline) was 109 % of control and the T/C (dose: 100.0 mg/kg/injection, schedule: Q01DX009 (ip), vehicle: saline with Tween-80) was 154 % of control. For the same compound, the T/C (dose: 100.0 mg/kg/injection, schedule: Q01DX009 (ip), vehicle: saline) was 109 % of control, the T/C [4] was 109 % of control and the T/C (dose: 264.0 mg/kg/injection, schedule: Q04DX003 (ip), vehicle: saline with Tween-80) was 172 % of control. For the same compound, the T/C [5] was 168 % of control and 204 % of control.
`CC(C)(C)c1cc(/C=N/n2c(-c3ccccc3)nc3ccccc3c2=O)cc(C(C)(C)C)c1O` was tested, and the T/C [9] was 98 % of control, the T/C [10] was 97 % of control and the T/C [11] was 90 % of control.
For `COC(=O)C1(CC(=O)c2ccc(Cl)cc2Cl)NC(=S)NC(=O)C1C#N` (stereo unspecified), the T/C [12] was 91 % of control and the T/C [13] was 92 % of control.
`O=[N+]([O-])c1ccc(CS(=O)(=O)C(Cl)(Cl)Cl)o1` was tested, and the T/C (dose: 6.25 mg/kg/injection, schedule: Q01DX009 (ip), vehicle: saline) was 108 % of control and 112 % of control and 87 % of control, the T/C [14] was 86 % of control and the T/C [15] was 86 % of control.
